In patent publication US12077503B2, “Substituted cyclic amides and their use as herbicides” (FMC CORPORATION, priority 2015, dated 2024):

Legend:
Experiment in all cases: Test C postemergence
Type in all cases: in vivo
Conditions in all cases: scale 0 to 100, 0 no effect, 100 complete control
[1] = system: Galium (catchweed bedstraw, Galium aparine)
How it was run: (§1)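 After treatment with surfactant-containing formulations, either preemergence to seeds in loam-sand soil or postemergence to potted seedlings at 2–18 cm, plants were kept 13–15 d in a greenhouse. Observers then compared them with controls and assigned ratings, 0 signifying no effect and 100 complete control.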

Kochia (Kochia scoparia) = system: Kochia (Kochia scoparia)
How it was run: as §1

[2] = system: barnyardgrass (Echinochloa crus-galli)
How it was run: as §1

[3] = system: blackgrass (Alopecurus myosuroides)
How it was run: as §1

[4] = system: chickweed (common chickweed, Stellaria media)
How it was run: as §1

corn (Zea mays) = system: corn (Zea mays)
How it was run: as §1

[5] = system: crabgrass, large (large crabgrass, Digitaria sanguinalis)
How it was run: as §1

[6] = system: foxtail, giant (giant foxtail, Setaria faberii)
How it was run: as §1

[7] = system: johnsongrass (Sorghum halepense)
How it was run: as §1

[8] = system: lambsquarters (Chenopodium album)
How it was run: as §1

[9] = system: morningglory (Ipomoea coccinea)
How it was run: as §1

[10] = system: nutsedge, yellow (yellow nutsedge, Cyperus esculentus)
How it was run: as §1

[11] = system: oat, wild (wild oat, Avena fatua)
How it was run: as §1

[12] = system: oilseed rape (Brassica napus)
How it was run: as §1

[13] = system: pigweed (Amaranthus retroflexus)
How it was run: as §1

[14] = system: ragweed (common ragweed, Ambrosia elatior)
How it was run: as §1

[15] = system: ryegrass, Italian (Italian ryegrass, Lolium multiflorum)
How it was run: as §1

soybean (Glycine max) = system: soybean (Glycine max)
How it was run: as §1

[16] = system: velvetleaf (Abutilon theophrasti)
How it was run: as §1

[17] = system: waterhemp (common waterhemp, Amaranthus rudis)
How it was run: as §1

[18] = system: wheat (winter wheat, Triticum aestivum)
How it was run: as §1

CN1C[C@H](c2ccc(F)c(F)c2)[C@@H](C(=O)Nc2ccccc2F)C1=O [Compound 596, (3S,4S)-4-(3,4-difluorophenyl)-N-(2-fluorophenyl)-1-methyl-2-oxo-3-pyrrolidinecarboxamide]
Plant response rating, Galium ([1]; 31 g ai/ha): 40
Plant response rating, Galium ([1]; 62 g ai/ha): 45
Plant response rating, Galium ([1]; 125 g ai/ha): 60
Plant response rating, Galium ([1]; 250 g ai/ha): 60
Plant response rating, Kochia (Kochia (Kochia scoparia); 31 g ai/ha): 30
Plant response rating, Kochia (Kochia (Kochia scoparia); 62 g ai/ha): 30
Plant response rating, Kochia (Kochia (Kochia scoparia); 125 g ai/ha): 35
Plant response rating, Kochia (Kochia (Kochia scoparia); 250 g ai/ha): 60
Plant response rating, Barnyardgrass ([2]; 31 g ai/ha): 0
Plant response rating, Barnyardgrass ([2]; 62 g ai/ha): 30
Plant response rating, Barnyardgrass ([2]; 125 g ai/ha): 45
Plant response rating, Barnyardgrass ([2]; 250 g ai/ha): 65
Plant response rating, Blackgrass ([3]; 31 g ai/ha): 0
Plant response rating, Blackgrass ([3]; 62 g ai/ha): 0
Plant response rating, Blackgrass ([3]; 125 g ai/ha): 0
Plant response rating, Blackgrass ([3]; 250 g ai/ha): 10
Plant response rating, Chickweed ([4]; 31 g ai/ha): 20
Plant response rating, Chickweed ([4]; 62 g ai/ha): 20
Plant response rating, Chickweed ([4]; 125 g ai/ha): 25
Plant response rating, Chickweed ([4]; 250 g ai/ha): 80
Plant response rating, Corn (corn (Zea mays); 31 g ai/ha): 0
Plant response rating, Corn (corn (Zea mays); 62 g ai/ha): 0
Plant response rating, Corn (corn (Zea mays); 125 g ai/ha): 0
Plant response rating, Corn (corn (Zea mays); 250 g ai/ha): 10
Plant response rating, Crabgrass, Large ([5]; 31 g ai/ha): 30
Plant response rating, Crabgrass, Large ([5]; 62 g ai/ha): 65
Plant response rating, Crabgrass, Large ([5]; 125 g ai/ha): 65
Plant response rating, Crabgrass, Large ([5]; 250 g ai/ha): 75
Plant response rating, Foxtail, Giant ([6]; 31 g ai/ha): 10
Plant response rating, Foxtail, Giant ([6]; 62 g ai/ha): 20
Plant response rating, Foxtail, Giant ([6]; 125 g ai/ha): 50
Plant response rating, Foxtail, Giant ([6]; 250 g ai/ha): 80
Plant response rating, Johnsongrass ([7]; 31 g ai/ha): 0
Plant response rating, Johnsongrass ([7]; 62 g ai/ha): 0
Plant response rating, Johnsongrass ([7]; 125 g ai/ha): 0
Plant response rating, Johnsongrass ([7]; 250 g ai/ha): 10
Plant response rating, Lambsquarters ([8]; 31 g ai/ha): 35
Plant response rating, Lambsquarters ([8]; 62 g ai/ha): 35
Plant response rating, Lambsquarters ([8]; 125 g ai/ha): 40
Plant response rating, Lambsquarters ([8]; 250 g ai/ha): 55
Plant response rating, Morningglory ([9]; 31 g ai/ha): 0
Plant response rating, Morningglory ([9]; 62 g ai/ha): 10
Plant response rating, Morningglory ([9]; 125 g ai/ha): 25
Plant response rating, Morningglory ([9]; 250 g ai/ha): 50
Plant response rating, Nutsedge, Yellow ([10]; 31 g ai/ha): 0
Plant response rating, Nutsedge, Yellow ([10]; 62 g ai/ha): 0
Plant response rating, Nutsedge, Yellow ([10]; 125 g ai/ha): 10
Plant response rating, Nutsedge, Yellow ([10]; 250 g ai/ha): 10
Plant response rating, Oat, Wild ([11]; 31 g ai/ha): 0
Plant response rating, Oat, Wild ([11]; 62 g ai/ha): 0
Plant response rating, Oat, Wild ([11]; 125 g ai/ha): 0
Plant response rating, Oat, Wild ([11]; 250 g ai/ha): 5
Plant response rating, Oilseed Rape ([12]; 31 g ai/ha): 0
Plant response rating, Oilseed Rape ([12]; 62 g ai/ha): 0
Plant response rating, Oilseed Rape ([12]; 125 g ai/ha): 30
Plant response rating, Oilseed Rape ([12]; 250 g ai/ha): 30
Plant response rating, Pigweed ([13]; 31 g ai/ha): 10
Plant response rating, Pigweed ([13]; 62 g ai/ha): 10
Plant response rating, Pigweed ([13]; 125 g ai/ha): 35
Plant response rating, Pigweed ([13]; 250 g ai/ha): 30
Plant response rating, Ragweed ([14]; 31 g ai/ha): 0
Plant response rating, Ragweed ([14]; 62 g ai/ha): 0
Plant response rating, Ragweed ([14]; 125 g ai/ha): 0
Plant response rating, Ragweed ([14]; 250 g ai/ha): 15
Plant response rating, Ryegrass, Italian ([15]; 31 g ai/ha): 0
Plant response rating, Ryegrass, Italian ([15]; 62 g ai/ha): 0
Plant response rating, Ryegrass, Italian ([15]; 125 g ai/ha): 0
Plant response rating, Ryegrass, Italian ([15]; 250 g ai/ha): 0
Plant response rating, Soybean (soybean (Glycine max); 31 g ai/ha): 0
Plant response rating, Soybean (soybean (Glycine max); 62 g ai/ha): 0
Plant response rating, Soybean (soybean (Glycine max); 125 g ai/ha): 10
Plant response rating, Soybean (soybean (Glycine max); 250 g ai/ha): 0
Plant response rating, Velvetleaf ([16]; 31 g ai/ha): 35
Plant response rating, Velvetleaf ([16]; 62 g ai/ha): 35
Plant response rating, Velvetleaf ([16]; 125 g ai/ha): 50
Plant response rating, Velvetleaf ([16]; 250 g ai/ha): 55
Plant response rating, Waterhemp ([17]; 31 g ai/ha): 0
Plant response rating, Waterhemp ([17]; 62 g ai/ha): 0
Plant response rating, Waterhemp ([17]; 125 g ai/ha): 20
Plant response rating, Waterhemp ([17]; 250 g ai/ha): 30
Plant response rating, Wheat ([18]; 31 g ai/ha): 0
Plant response rating, Wheat ([18]; 62 g ai/ha): 0
Plant response rating, Wheat ([18]; 125 g ai/ha): 0
Plant response rating, Wheat ([18]; 250 g ai/ha): 0
